Tests used:
Format in all cases: in vivo
[1] = test system: barnyard grass (Echinochloa crus-galli Beauv.); assay: Test Example 1: herbicidal effect on paddy field weeds before emergence; settings: Dosage 5 kg/ha
Summary of the method: (§1)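 Seeds of both weeds, still ungerminated, in soil pots held under paddy conditions received a set dose of test solution as soil treatment. After twenty-one days, control relative to untreated pots was calculated and rated on a scoring scale.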

[2] = test system: bulrush (Scirpus juncoides Roxb.); assay: as above; settings: Dosage 5 kg/ha
Summary of the method: as §1

[3] = test system: barnyard grass (Echinochloa crus-galli Beauv.); assay: Test Example 2: herbicidal effect on paddy field weeds after emergence; settings: Dosage 5 kg/ha; one-leaved stage; 21 days after treatment
Summary of the method: (§2)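 Weeds were sown in 1/10000 are pots of soil flooded to paddy conditions and grown to the one-leaf stage, then the soil was treated with a solution of compound at a predetermined dosage.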

[4] = test system: bulrush (Scirpus juncoides Roxb.); assay: as above; settings: Dosage 5 kg/ha; one-leaved stage; 21 days after treatment
Summary of the method: as §2

[5] = test system: monochoria (Monochoria vaginalis Presl); assay: as above; settings: Dosage 5 kg/ha; one-leaved stage; 21 days after treatment
Summary of the method: as §2

[6] = test system: barnyard grass (Echinochloa crus-galli Beauv.), Ec; assay: Test Example 3: herbicidal effect on upland weeds before emergence; settings: dosage 5 kg/ha
Summary of the method: (§3)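 Read-out is the weed-killing rate, scored fourteen days after a single spray application made before the weeds emerged. The spray was a liquid agent carrying the active compound at a prescribed dose.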

[7] = test system: bird's eye speedwell (Veronica persica Poir.), Vp; assay: as above; settings: dosage 5 kg/ha
Summary of the method: as §3

[8] = test system: cleavers (Galium aparine L.), Ga; assay: as above; settings: dosage 5 kg/ha
Summary of the method: as §3

[9] = test system: cocklebur (Xanthium strumarium L.), Xs; assay: as above; settings: dosage 5 kg/ha
Summary of the method: as §3

[10] = test system: forxtail grass (Alopecurus aequalis var. amurensis Ohwi), Am; assay: as above; settings: foxtail grass, dosage 5 kg/ha
Summary of the method: as §3

[11] = test system: velvetleaf (Abutilon theophtasti L.), At; assay: as above; settings: dosage 5 kg/ha
Summary of the method: as §3

[12] = test system: soybean plant (So); assay: Test Example 3: phytotoxicity to upland crop plants, treatment before emergence; settings: dosage 5 kg/ha
Summary of the method: (§4)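 A sprayed liquid agent with a prescribed concentration of active compound was applied pre-emergence. Visual phytotoxicity on soybean and wheat was rated by criterion two weeks (14 days) after application, concurrently with the herbicidal assessment.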

[13] = test system: wheat (Wh); assay: as above; settings: dosage 5 kg/ha
Summary of the method: as §4

[14] = test system: barnyard grass (Echinochloa crus-galli Beauv.), Ec; assay: Test Example 4: herbicidal effect on upland weeds after emergence; settings: dosage 5 kg/ha; sprayed after emergence; judged 14 days after treatment
Summary of the method: (§5)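 Soil vats; sown weeds + soybean/wheat; spray at leaf-stage, prescribed compound concentration; weed-kill rate judged day 14.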

[15] = test system: bird's eye speedwell (Veronica persica Poir.), Vp; assay: as above; settings: dosage 5 kg/ha; sprayed after emergence; judged 14 days after treatment
Summary of the method: as §5

[16] = test system: cleavers (Galium aparine L.), Ga; assay: as above; settings: dosage 5 kg/ha; sprayed after emergence; judged 14 days after treatment
Summary of the method: as §5

[17] = test system: cocklebur (Xanthium strumarium L.), Xs; assay: as above; settings: dosage 5 kg/ha; sprayed after emergence; judged 14 days after treatment
Summary of the method: as §5

[18] = test system: forxtail grass (Alopecurus aequalis var. amurensis Ohwi), Am; assay: as above; settings: dosage 5 kg/ha; sprayed after emergence; judged 14 days after treatment
Summary of the method: as §5

[19] = test system: velvetleaf (Abutilon theophtasti L.), At; assay: as above; settings: dosage 5 kg/ha; sprayed after emergence; judged 14 days after treatment
Summary of the method: as §5

[20] = test system: soybean plant; assay: Test Example 4: phytotoxicity to upland crop plants, treatment after emergence; settings: dosage 5 kg/ha, sprayed after emergence, judged 14 days after treatment
Summary of the method: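 Scores of weed-killing rate, with crop phytotoxicity, come from inspection 14 days after plants in soil vats, grown to specified leaf stages, are sprayed with a formulation holding the compound at a prescribed concentration.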

[21] = test system: wheat; assay: as above; settings: dosage 5 kg/ha, sprayed after emergence, judged 14 days after treatment
Summary of the method: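 Post-emergence foliar spray, compound at prescribed concentration, applied at defined leaf stages; weeds plus soybean/wheat grown in soil vats. Read-out: weed-killing rate and crop injury, 14 d post-treatment.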

Compound: CCCNC(=O)c1nc2c(cc1C(=O)Nc1c(CC)ccc(Cl)c1CC)c(C)nn2C [compound 1112]
- Pre-emergence treatment Barnyard grass (herbicidal effect) [1]: 5 (Weed-killing rate is 100%.)
- Pre-emergence treatment Bulrush (herbicidal effect) [2]: 5 (Weed-killing rate is 100%.)
- Post-emergence treatment Barnyard grass (herbicidal effect) [3]: 5 (Weed-killing rate is 100%.)
- Post-emergence treatment Bulrush (herbicidal effect) [4]: 5 (Weed-killing rate is 100%.)
- Post-emergence treatment Monochoria (herbicidal effect) [5]: 5 (Weed-killing rate is 100%.)
- Herbicidal effect Ec [6]: 5 (Weed-killing rate is 100%.)
- Herbicidal effect Vp [7]: 5 (Weed-killing rate is 100%.)
- Herbicidal effect Ga [8]: 5 (Weed-killing rate is 100%.)
- Herbicidal effect Xs [9]: 5 (Weed-killing rate is 100%.)
- Herbicidal effect Am [10]: 5 (Weed-killing rate is 100%.)
- Herbicidal effect At [11]: 5 (Weed-killing rate is 100%.)
- Phytotoxicity So [12]: 5 (Crop-killing rate is 100%.)
- Phytotoxicity Wh [13]: 5 (Crop-killing rate is 100%.)
- Herbicidal effect Ec [14]: 5 (Weed-killing rate is 100%.)
- Herbicidal effect Vp [15]: 5 (Weed-killing rate is 100%.)
- Herbicidal effect Ga [16]: 5 (Weed-killing rate is 100%.)
- Herbicidal effect Xs [17]: 5 (Weed-killing rate is 100%.)
- Herbicidal effect Am [18]: 5 (Weed-killing rate is 100%.)
- Herbicidal effect At [19]: 5 (Weed-killing rate is 100%.)
- Phytotoxicity So [20]: 5 (Crop-killing rate is 100%.)
- Phytotoxicity Wh [21]: 5 (Crop-killing rate is 100%.)

Compound: CCCNC(=O)c1nc2nn(C)cc2cc1C(=O)Nc1c(CC)ccc(Cl)c1CC [compound 1124]
- Pre-emergence treatment Barnyard grass (herbicidal effect) [1]: 5 (Weed-killing rate is 100%.)
- Pre-emergence treatment Bulrush (herbicidal effect) [2]: 5 (Weed-killing rate is 100%.)
- Post-emergence treatment Barnyard grass (herbicidal effect) [3]: 5 (Weed-killing rate is 100%.)
- Post-emergence treatment Bulrush (herbicidal effect) [4]: 5 (Weed-killing rate is 100%.)
- Post-emergence treatment Monochoria (herbicidal effect) [5]: 5 (Weed-killing rate is 100%.)
- Herbicidal effect Ec [6]: 5 (Weed-killing rate is 100%.)
- Herbicidal effect Vp [7]: 5 (Weed-killing rate is 100%.)
- Herbicidal effect Ga [8]: 5 (Weed-killing rate is 100%.)
- Herbicidal effect Xs [9]: 5 (Weed-killing rate is 100%.)
- Herbicidal effect Am [10]: 5 (Weed-killing rate is 100%.)
- Herbicidal effect At [11]: 5 (Weed-killing rate is 100%.)
- Phytotoxicity So [12]: 5 (Crop-killing rate is 100%.)
- Phytotoxicity Wh [13]: 5 (Crop-killing rate is 100%.)
- Herbicidal effect Ec [14]: 5 (Weed-killing rate is 100%.)
- Herbicidal effect Vp [15]: 5 (Weed-killing rate is 100%.)
- Herbicidal effect Ga [16]: 5 (Weed-killing rate is 100%.)
- Herbicidal effect Xs [17]: 5 (Weed-killing rate is 100%.)
- Herbicidal effect Am [18]: 5 (Weed-killing rate is 100%.)
- Herbicidal effect At [19]: 5 (Weed-killing rate is 100%.)
- Phytotoxicity So [20]: 5 (Crop-killing rate is 100%.)
- Phytotoxicity Wh [21]: 5 (Crop-killing rate is 100%.)

Reference: US6444617B1, “Fused-heterocycle dicarboxylic acid diamide derivatives or salts thereof, herbicide and usage thereof” (Nihon Nohyaku Co., Ltd., priority 1998, dated 2002)
